target: T1, MAGL (recombinant wild-type) (Homo sapiens, UniProt Q99685); assay: 4-NPA assay: MAGL inhibitory activity by hydrolysis of 4-nitrophenylacetate, absorbance at 405 nm; type: biochemical; conditions: 4-NPA assay (values without footnote [a])
T1 sequence (Q99685 1-303): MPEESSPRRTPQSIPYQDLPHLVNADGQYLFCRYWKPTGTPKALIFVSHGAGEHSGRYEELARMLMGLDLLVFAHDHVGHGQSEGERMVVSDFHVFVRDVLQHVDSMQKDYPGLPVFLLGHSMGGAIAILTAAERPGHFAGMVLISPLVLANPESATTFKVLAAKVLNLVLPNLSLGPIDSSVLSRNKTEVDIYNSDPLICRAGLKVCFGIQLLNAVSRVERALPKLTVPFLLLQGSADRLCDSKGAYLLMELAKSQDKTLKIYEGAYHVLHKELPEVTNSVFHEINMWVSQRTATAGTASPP
Procedure, shortened: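 Compound (final 25 μM to 1.7 nM, 3-fold steps) was preincubated 15 min at RT with 1 nM MAGL in 50 mM Tris, 1 mM EDTA, then 300 μM 4-nitrophenylacetate was added. A405 was read after 5 min and again 80 min later at RT, and activity was taken as the difference between the two reads.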

SMILES | IC50
O=C1COc2ccc(C(=O)N3CCC(n4cnc5ccccc54)CC3)cc2N1 [Example 49, 6-[4-(benzimidazol-1-yl)piperidine-1-carbonyl]-4H-1,4-benzoxazin-3-one] | 5540 nM
O=C1COc2ccc(C(=O)N3CCC([C@@H](c4ccccc4)c4ccc(F)cc4)CC3)cc2N1 (single isomer, unassigned) [Example 6] | 0.9 nM
O=C1COc2ccc(C(=O)N3CCC(c4cc5ccc(Cl)cc5[nH]4)CC3)cc2N1 [Example 46, 6-[4-(6-chloro-1H-indol-2-yl)piperidine-1-carbonyl]-4H-1,4-benzoxazin-3-one] | 1110 nM
Cc1ccc(C(c2ccc(F)cc2)C2CCN(C(=O)c3ccc4c(c3)NC(=O)CO4)CC2)cc1 (single isomer, unassigned) [Example 112, 6-[4-[(S or R)-(4-Fluorophenyl)-(p-tolyl)methyl]piperidine-1-carbonyl]-4H-1,4-benzoxazin-3-one] | 0.3 nM
O=C1COc2ccc(C(=O)N3CCC(c4cc5ccccc5[nH]4)CC3)cc2N1 [Example 40, 6-[4-(1H-indol-2-yl)piperidine-1-carbonyl]-4H-1,4-benzoxazin-3-one] | 550 nM
COc1ccc2[nH]c(C)c(C3CCN(C(=O)c4ccc5c(c4)NC(=O)CO5)CC3)c2c1 [Example 41, 6-[4-(5-methoxy-2-methyl-1H-indol-3-yl)piperidine-1-carbonyl]-4H-1,4-benzoxazin-3-one] | 440 nM
O=C1COc2ccc(C(=O)N3CCC(C(c4ccccc4)c4cccc(F)c4)CC3)cc2N1 (stereo not drawn) [Example 82, 6-[4-[(3-fluorophenyl)-phenyl-methyl]piperidine-1-carbonyl]-4H-1,4-benzoxazin-3-one] | 0.69 nM
O=C1COc2ccc(C(=O)N3CCC(C(c4ccc(F)cc4)c4cccc(F)n4)CC3)cc2N1 (single isomer, unassigned) [Example 119, 6-[4-[(R or S)-(4-Fluorophenyl)-(6-fluoro-2-pyridyl)methyl]piperidine-1-carbonyl]-4H-1,4-benzoxazin-3-one] | 9.1 nM
O=C1COc2ccc(C(=O)N3CCC(C(c4ccccc4)c4ccc(Cl)c(Cl)c4)CC3)cc2N1 (stereo not drawn) [Example 4, 6-[4-[(3,4-Dichlorophenyl)-phenylmethyl]piperidine-1-carbonyl]-4H-1,4-benzoxazin-3-one] | 0.69 nM
O=C1COc2ccc(C(=O)N3CCC(c4cccc(Cl)c4)C3)cc2N1 (stereo not drawn) [Example 56, 6-[3-(3-chlorophenyl)pyrrolidine-1-carbonyl]-4H-1,4-benzoxazin-3-one] | 1400 nM
COc1cccc([C@@H](c2ccccc2)C2CCN(C(=O)c3ccc4c(c3)NC(=O)CO4)CC2)c1 (single isomer, unassigned) [Example 13] | 0.5 nM
O=C1CCc2c(cc(C(=O)N3CCC(C(c4ccccc4)c4ccccc4)CC3)cc2OCCF)N1 [Example 109, 7-(4-Benzhydrylpiperidine-1-carbonyl)-5-(2-fluoroethoxy)-3,4-dihydro-1H-quinolin-2-one] | 6.2 nM
CS(=O)(=O)c1cccc(C(c2ccccc2)C2CCN(C(=O)c3ccc4c(c3)NC(=O)CO4)CC2)c1 (single isomer, unassigned) [Example 129, 6-[4-[(R or S)-(3-Methylsulfonylphenyl)-phenyl-methyl]piperidine-1-carbonyl]-4H-1,4-benzoxazin-3-one] | 12.2 nM
COc1ccc(C(c2ccc(F)cc2)C2CCN(C(=O)c3ccc4c(c3)NC(=O)CO4)CC2)cc1OC (single isomer, unassigned) [Example 104, 6-[4-[(S or R)-(3,4-Dimethoxyphenyl)-(4-fluorophenyl)methyl]piperidine-1-carbonyl]-4H-1,4-benzoxazin-3-one] | 0.3 nM
COc1ccc(C(c2ccccc2)C2CN(C(=O)c3ccc4c(c3)NC(=O)CO4)C2)cc1OC (stereo not drawn) [Example 127, 6-[3-[(3,4-Dimethoxyphenyl)-phenyl-methyl]azetidine-1-carbonyl]-4H-1,4-benzoxazin-3-one] | 802 nM
O=C1CCc2c(cc(C(=O)N3CCC(C(c4ccc(F)cc4)c4ccc(F)cc4)CC3)cc2OCCF)N1 [Example 106, 7-[4-[Bis(4-fluorophenyl)methyl]piperidine-1-carbonyl]-5-(2-fluoroethoxy)-3,4-dihydro-1H-quinolin-2-one] | 7.9 nM
COc1cc(OC)cc(N2CCN(C(=O)c3ccc4c(c3)NC(=O)CO4)CC2)c1 [Example 89, 6-[4-(3,5-dimethoxyphenyl)piperazine-1-carbonyl]-4H-1,4-benzoxazin-3-one] | 1900 nM
COc1ccc(C(c2cccnc2)C2CCN(C(=O)c3ccc4c(c3)NC(=O)CO4)CC2)cc1OC (single isomer, unassigned) [Example 122, 6-[4-[(R or S)-(3,4-Dimethoxyphenyl)-(3-pyridyl)methyl]piperidine-1-carbonyl]-4H-1,4-benzoxazin-3-one] | 3.6 nM
O=C1COc2ccc(C(=O)N3CCC(c4noc5cc(F)ccc45)CC3)cc2N1 [Example 51, 6-[4-(6-fluoro-1,2-benzoxazol-3-yl)piperidine-1-carbonyl]-4H-1,4-benzoxazin-3-one] | 370 nM
O=C1COc2ccc(C(=O)N3CCC([C@@H](c4ccccc4)c4cccc(OCCOCCF)c4)CC3)cc2N1 [Example 67, 6-[4-[(S)-[3-[2-(2-fluoroethoxy)ethoxy]phenyl]-phenyl-methyl]piperidine-1-carbonyl]-4H-1,4-benzoxazin-3-one] | 0.65 nM
O=C1COc2ccc(C(=O)N3CCC(c4c[nH]c5cc(Cl)ccc45)CC3)cc2N1 [Example 21, 6-[4-(6-chloro-1H-indol-3-yl)piperidine-1-carbonyl]-4H-1,4-benzoxazin-3-one] | 14 nM
COc1ccc([C@@H](c2ccccc2)C2CCN(C(=O)c3ccc4c(c3)NC(=O)CO4)CC2)cc1 (single isomer, unassigned) [Example 11] | 0.6 nM
O=C1COc2ccc(C(=O)N3CCC(C(c4ccc(F)cc4)c4ccc(F)nc4)CC3)cc2N1 (single isomer, unassigned) [Example 115, 6-[4-[(R or S)-(4-Fluorophenyl)-(6-fluoro-3-pyridyl)methyl]piperidine-1-carbonyl]-4H-1,4-benzoxazin-3-one] | 1.4 nM
Cn1cc(C2CCN(C(=O)c3cc4c(cc3F)OCC(=O)N4)CC2)c2cc(Cl)ccc21 [Example 28, 6-[4-(5-chloro-1-methylindol-3-yl)piperidine-1-carbonyl]-7-fluoro-4H-1,4-benzoxazin-3-one] | 1 nM

target: T2, MAGL (Homo sapiens, UniProt Q99685); assay: 2-AG assay: MAGL inhibitory activity by hydrolysis of 2-arachidonoylglycerol to arachidonic acid, mass spectrometry; type: biochemical; conditions: 2-AG assay (values marked [a])
T2 sequence (Q99685 1-303): T1 sequence (Q99685 1-303)
Method: Alternatively, compounds were profiled for MAGL inhibitory activity by determining the enzymatic activity by following the hydrolysis of the natural substrate, 2-arachidonoylglycerol, resulting in arachidonic acid, which can be followed by mass spectrometry. This assay is hereinafter abbreviated “2-AG assay”.
The 2-AG assay was carried out in 384 well assay plates (PP, Greiner Cat #784201) in a total volume of 20 μL. Compound dilutions were made in 100% DMSO (VWR Chemicals 23500.297) in a polypropylene plate in 3-fold dilution steps to give a final concentration range in the assay from 12.5 μM to […]. 0.25 μL compound dilutions (100% DMSO) were added to 9 μL MAGL in assay buffer (50 mM TRIS (GIBCO, 15567-027), 1 mM EDTA (Fluka, 03690-100 ml), 0.01% (v/v) Tween. After shaking, the plate was incubated for 15 min at RT. To start the reaction, 10 μL 2-arachidonoylglycerol in assay buffer was added. The final concentrations in the assay was […] and 8 μM 2-arachidonoylglyerol. After shaking and 30 min incubation at RT, the reaction was quenched by the addition of 40 μL of acetonitrile containing 4 μM of d8-arachidonic acid. The amount of arachidonic acid was traced by an online SPE system (Agilent Rapidfire) coupled to a triple quadrupole mass spectrometer (Agilent 6460). A C18 SPE cartridge (G9205A) was used in an acetonitrile/water liquid setup. The mass spectrometer was operated in negative electrospray mode following the mass transitions 303.1→259.1 for arachidonic acid and 311.1→267.0 for d8-arachidonic acid. The activity of the compounds was calculated based on the ratio of intensities [arachidonic acid/d8-arachidonic acid].

SMILES | IC50
Cn1ccc(C(c2ccccc2)C2CCN(C(=O)c3ccc4c(c3)NC(=O)CO4)CC2)cc1=O (single isomer, unassigned) [Example 142, 6-[4-[(S or R)-(1-Methyl-2-oxo-4-pyridyl)-phenyl-methyl]piperidine-1-carbonyl]-4H-1,4-benzoxazin-3-one] | 0.66 nM
COc1cc(C(c2ccccc2)C2CCN(C(=O)c3ccc4c(c3)NC(=O)CO4)CC2)ccc1OCCF (single isomer, unassigned) [Example 139, 6-[4-[(R or S)-[4-(2-Fluoroethoxy)-3-methoxy-phenyl]-phenyl-methyl]piperidine-1-carbonyl]-4H-1,4-benzoxazin-3-one] | 0.17 nM
COc1cc(C(c2ccccc2)C2CCN(C(=O)c3ccc4c(c3)NC(=O)CO4)CC2)ccc1OCCF (single isomer, unassigned) [Example 138, 6-[4-[(S or R)-[4-(2-Fluoroethoxy)-3-methoxy-phenyl]-phenyl-methyl]piperidine-1-carbonyl]-4H-1,4-benzoxazin-3-one] | 9.41 nM
O=C1COc2ccc(C(=O)N3CC(C(c4ccccc4)c4ccccc4)C3)cc2N1 [Example 124, 6-(3-Benzhydrylazetidine-1-carbonyl)-4H-1,4-benzoxazin-3-one] | 258 nM
Cn1ccc(C(c2ccccc2)C2CCN(C(=O)c3ccc4c(c3)NC(=O)CO4)CC2)cc1=O (single isomer, unassigned) [Example 143, 6-[4-[(R or S)-(1-Methyl-2-oxo-4-pyridyl)-phenyl-methyl]piperidine-1-carbonyl]-4H-1,4-benzoxazin-3-one] | 79.3 nM
COc1ccc(C(c2ccccc2)C2CCN(C(=O)c3ccc4c(c3)NC(=O)CO4)CC2)cc1OCCF (single isomer, unassigned) [Example 135, 6-[4-[(R or S)-[3-(2-Fluoroethoxy)-4-methoxy-phenyl]-phenyl-methyl]piperidine-1-carbonyl]-4H-1,4-benzoxazin-3-one] | 4.16 nM

Source: patent US11420961B2, “Heterocyclic compounds” (Hoffmann-La Roche Inc., priority 2017, dated 2022)
